The conditions of series [1]: cited from earlier work.
For series [2] the following is noted: cited from earlier work. This is another data set of the same source.
The nature of series [3]: Naltrexone HCl excipient compatibility (stressed stability) study, assay and impurities. In kind it is physicochemical. As to the method:
An excipient compatibility study was designed and conducted to screen excipients for the low dose naltrexone HCl delayed release capsules for formulation development purposes. Based on the formulation approach of a multi-particulate system filled in capsule dosage form, the drug layered spheres were coated with a functional pH dependent polymer film.
The physical mixtures were prepared by weighing individual material into glass crimp vials and mixing using a vortex. The open samples were left open and closed samples were tightly closed using a crimper.

The mark [4] stands for this setting: 40° C./ 75% RH - Closed - 2 weeks.
Where [5] appears, read: 40° C./ 75% RH - Open - 2 weeks.

Structures are written as SMILES. Where a name gives a salt, the structure may show the parent alone. Read-outs that look alike come from different tables or passages of the source.

Take `C=CCN1CC[C@]23c4c5ccc(O)c4OC2C(=O)CC[C@@]3(O)[C@H]1C5` (stereo partly drawn) [Naloxone hydrochloride, 17-allyl-4,5 α-epoxy, 3-14-dihydroxymorphinan-6-one hydrochloride]: the solubility result in series [1] (in alcohol) is given as “slightly soluble”; in series [1] (in ether and in chloroform) it was “practically insoluble”; in series [1] (in water, in dilute acids, and in strong alkali) it was “soluble”.

In the case of `C=CCN1CC[C@]23c4c5ccc(O)c4O[C@H]2C(=O)CC[C@@]3(O)[C@H]1C5` [naloxone], the half-life in series [2] (in vivo) is 3 h. Moreover, the oral bioavailability in series [2] (oral) is listed as around 3%.

Take `O=C1CC[C@@]2(O)[C@H]3Cc4ccc(O)c5c4[C@@]2(CCN3CC2CC2)[C@H]1O5` [Naltrexone Control]: the “Assay (%)” value in series [3] (setting [4]) was determined as 99.3%; in series [3] (setting [5]), 101.5%; in series [3] (Initial), 99.4%. Further, the “Impurities (%)” value in series [3] (setting [4]) amounted to 0.6%; in series [3] (setting [5]), 0.6%; in series [3] (Initial), 0.4%.

As usually defined, the half-life is how long it takes for the measured level to halve.

These data come from patent publication US20230372328A1, “ORAL DELAYED BURST FORMULATION OF LOW-DOSE NALTREXONE AND METHODS FOR TREATING FIBROMYALGIA AND LONG COVID” (Scilex Holding Company, priority 2020, published 2023).
